Positions of bridges follow the written chain, without caps; N, C: chain ends. No end group written: not given here.
Test system: human nAChR
Test: Calcium response of nAChR-overexpressing CN21 cells pre-incubated with polypeptide
Type: cell-based
Conditions: CN21 cells expressing human nAChR; polypeptide 10^-11-10^-5 M; 6 hours incubation; FIG. 5
Procedure: The bioactivity of polypeptide nAChR_BP was assessed by using […] expressing human nAChR. The CN21 cells were incubated in 12-well plates one day prior. After 25 hours of incubation, the media were removed and new media containing various concentrations (10^−11-10^−5 M) of the polypeptide were added to incubate the cells. Six hours later, concentrations of calcium ion were measured using a kit, such that the activity of nAChR_BP was determined in vitro by assessing the antagonism of the nAChR mediated increase of [Ca2+] in CN21 cells.

Substance: nAChR_BP: novel polypeptide with amino acid sequence of SEQ ID NO: 1 that targets neuronal nicotinic acetylcholine receptor (ACCLFNCHSWVGC; disulfide 2-13, 3-7)
- antagonism of the nAChR mediated increase of [Ca2+] in CN21 cells: capable of significantly inhibiting nAChRs
